{"source": "paper PMC8662641", "about": "“Site-Specific Labeling of Endogenous Proteins Using CoLDR Chemistry” (Journal of the American Chemical Society, 2021)", "target": "BTK (Homo sapiens, UniProt Q06187)", "sequence (Q06187 whole entry)": "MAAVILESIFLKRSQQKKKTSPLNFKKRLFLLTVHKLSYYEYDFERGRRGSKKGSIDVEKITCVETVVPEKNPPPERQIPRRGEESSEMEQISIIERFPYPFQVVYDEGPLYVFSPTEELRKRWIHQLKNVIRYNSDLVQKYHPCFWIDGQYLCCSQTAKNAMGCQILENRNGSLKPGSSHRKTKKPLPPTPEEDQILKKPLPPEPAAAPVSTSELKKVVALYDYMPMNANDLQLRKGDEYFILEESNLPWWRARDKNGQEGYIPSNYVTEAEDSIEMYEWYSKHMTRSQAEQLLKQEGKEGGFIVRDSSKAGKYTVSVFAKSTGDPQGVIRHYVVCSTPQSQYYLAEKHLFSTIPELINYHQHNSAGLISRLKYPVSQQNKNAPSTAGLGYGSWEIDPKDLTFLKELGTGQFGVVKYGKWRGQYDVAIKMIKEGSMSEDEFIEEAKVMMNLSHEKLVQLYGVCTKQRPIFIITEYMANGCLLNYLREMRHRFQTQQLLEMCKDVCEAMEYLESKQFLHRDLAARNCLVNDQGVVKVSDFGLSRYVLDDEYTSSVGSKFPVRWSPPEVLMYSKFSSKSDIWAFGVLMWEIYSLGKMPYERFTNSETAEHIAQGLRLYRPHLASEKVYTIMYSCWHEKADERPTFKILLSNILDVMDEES", "experiment": "BTK activity in Mino cells (autophosphorylation)", "type": "cell-based", "set-up": "We incubated Mino B cells with probes containing different tags; endogenous in cells; host or cells: Mino cells", "settings": "Mino cells, 1 h; 100 nM probes, 1 μM ibrutinib or Ibr-H", "experimental": "The cells were harvested, and immunoblots of phospho-BTK, total-BTK, and β-actin were performed.\nCell pellets were washed with ice-cold PBS and lysed using RIPA buffer (Sigma, R0278). […] Samples containing 50 μg of total protein were prepared with 4× LDS sample buffer (NuPAGE, Thermo Fischer Scientific, NP0007) and were then resolved on a 4–20% Bis-Tris gel (GeneScript SurePAGE, M00657). […] The EZ-ECL kit (Biological Industries, 20-500-1000) was used to detect HRP activity.", "data": [{"smiles": "C#CCCNC(=O)C(=C)CN1CCC[C@@H](n2nc(-c3ccc(Oc4ccccc4)cc3)c3c(N)ncnc32)C1", "note": "[1b]", "values": [{"measurement": "BTK autophosphorylation after anti-IgM", "result": "BTK remained active after labeling"}]}]}
